Molecular target: T1, GST-tagged KRAS G12D (2-169) (Homo sapiens, UniProt P01116, G12D)
T1 construct: GST-tagged KRAS^G12D (2-169, Reaction Biology, MSC-11-539); purchased Reaction Biology MSC-11-539 (KRAS G12D); MSC-11-502 (SOS1cat)
Experiment: Nucleotide exchange assay (NEA), HTRF of SOS-mediated GTP-DY-647P1 binding
Assay type: biochemical
Settings: 5 nM GST-KRAS G12D, 20 nM SOScat, 150 nM GTP; compound 1 h at RT
Description: This activity is tightly regulated by GTPase activating proteins (GAPs) and guanine nucleotide exchange factors (GEFs). GEFs, such as SOS1/2, activate Ras proteins by exchanging GDP for GTP, thus returning Ras to its active conformation (Simanshu, Nissley, & McCormick, 2017). […] Homogenous time resolved fluorescence (HTRF) was used to detect SOS-mediated binding of a fluorescent GTP analog, GTP-DY-647P1 (Jena Biosciences NU-820-647P1) to GST-tagged KRAS^G12D (2-169, Reaction Biology, MSC-11-539).
GST-tagged KRAS^G12D (2-169) and anti-GST MAb Tb Cryptate Gold (CisBio 61GSTTLB) were diluted into assay buffer (20 mM HEPES, pH 7.3, 150 mM NaCl, 5 mM MgCl2, 0.05% BSA 0.0025% NP40, 1 mM DTT) to prepare a 2.5× donor solution. 5× compound was added to the protein mixture and incubated for 1 h at RT. 2.5× acceptor solution containing SOS1cat (564-1049, Reaction Biology MSC-11-502) and GTP-DY-647P1 were then added to the donor KRAS mixture such that the final concentration of the reaction contained 5 nM GST-tagged KRAS^G12D (2-169), 20 nM SOScat, and 150 nM GTP. The reaction was monitored using at RT with the Envision multimode plate reader (Ex/Em 337/665, […]) up to 90 minutes at 5 minute intervals. Data was blanked to reactions without SOS1 and % inhibition was calculated such that DMSO only=0% and blank=100%. Curve fitting was done using a 4 parameter fit. NEA KRAS G12D ID50 (uM) values of selected compounds are depicted in Table 2 with compounds having a value<0.01 uM as ++++; >0.01 uM to 0.1 uM as +++; >0.1 uM to 1 uM as ++; >1 uM to 20 uM as +; and >20 uM as NA.

T1 sequence (P01116 2-169 isoform P01116-2 G12D): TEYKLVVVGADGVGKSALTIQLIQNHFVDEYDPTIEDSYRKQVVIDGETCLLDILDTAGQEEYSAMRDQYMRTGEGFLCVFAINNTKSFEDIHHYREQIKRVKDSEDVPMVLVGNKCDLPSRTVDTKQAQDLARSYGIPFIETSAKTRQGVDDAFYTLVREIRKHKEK

SMILES | IC50 [nM]
O=C1CCCN(c2nc(OCC34CCCN3CC(F)C4)nc3c2COC2(CCc4c(Cl)cccc42)C3)CC1 (mixture of isomers) [Compound 21, 1-[4′-chloro-2-[[rac-(2R,8S)-2-fluoro-1,2,3,5,6,7-hexahydropyrrolizin-8-yl]methoxy]spiro[5,8-dihydropyrano[4,3-d]pyrimidine-7,1′-indane]-4-yl]azepan-4-one] | 1000 to 20000
N#Cc1c(N)sc2c1C1(CCC2)Cc2nc(OC[C@@]34CCCN3C[C@H](F)C4)nc(N3CCCCCC3)c2CO1 (mixture of isomers) [Compound 26, 2′-amino-4-(azepan-1-yl)-2-[[rac-(2R,8S)-2-fluoro-1,2,3,5,6,7-hexahydropyrrolizin-8-yl]methoxy]spiro[5,8-dihydropyrano[4,3-d]pyrimidine-7,4′-6,7-dihydro-5H-benzothiophene]-3′-carbonitrile] | 1000 to 20000
C[C@@]1(O)CCCN(c2nc(OC[C@@]34CCCN3C[C@H](F)C4)nc3c2COC2(CCc4c(Cl)cccc42)C3)C1 (single isomer, unassigned) [Compound 23B, (3R)-1-[(7*)-4′-chloro-2-[[(2R,8S)-2-fluoro-1,2,3,5,6,7-hexahydropyrrolizin-8-yl]methoxy]spiro[5,8-dihydropyrano[4,3-d]pyrimidine-7,1′-indane]-4-yl]-3-methyl-piperidin-3-ol] | 1000 to 20000
O=C1NC(=O)[C@]2(CCCN(c3nc(OC[C@@]45CCCN4C[C@H](F)C5)nc4c3COC3(CCCc5c(Cl)cc(O)cc53)C4)C2)N1 (single isomer, unassigned) [Compound 51A, (5R)-9-[(7*)-5′-chloro-2-[[(2R,8S)-2-fluoro-1,2,3,5,6,7-hexahydropyrrolizin-8-yl]methoxy]-7′-hydroxy-spiro[5,8-dihydropyrano[4,3-d]pyrimidine-7,1′-tetralin]-4-yl]-1,3,9-triazaspiro[4.5]decane-2,4-dione] | 1000 to 20000
OC1CCCN(c2nc(OC[C@@]34CCCN3C[C@H](F)C4)nc3c2COC2(CCCc4ccc(F)cc42)C3)CC1 (stereo partly drawn) [Compound 11, 1-[7′-fluoro-2-[[(2R,8S)-2-fluoro-1,2,3,5,6,7-hexahydropyrrolizin-8-yl]methoxy]spiro[5,8-dihydropyrano[4,3-d]pyrimidine-7,1′-tetralin]-4-yl]azepan-4-ol] | 1000 to 20000
F[C@H]1CN2CCC[C@@]2(COc2nc3c(c(N4CCCCCC4)n2)COC2(CCCc4ccccc42)C3)C1 (stereo partly drawn) [Compound 12, 4-(azepan-1-yl)-2-[[(2R,8S)-2-fluoro-1,2,3,5,6,7-hexahydropyrrolizin-8-yl]methoxy]spiro[5,8-dihydropyrano[4,3-d]pyrimidine-7,1′-tetralin]] | 1000 to 20000
O[C@@H]1CCN(c2nc(OC[C@@]34CCCN3C[C@H](F)C4)nc3c2COC2(CCc4c(Cl)cccc42)C3)CC[C@@H]1O (stereo partly drawn) [Compound 22, syn-1-[4′-chloro-2-[[(2R,8S)-2-fluoro-1,2,3,5,6,7-hexahydropyrrolizin-8-yl]methoxy]spiro[5,8-dihydropyrano[4,3-d]pyrimidine-7,1′-indane]-4-yl]azepane-4,5-diol] | 1000 to 20000
N#CN[C@@H]1CCCCN(c2nc(OC[C@@]34CCCN3C[C@H](F)C4)nc3c2CO[C@@]2(CCc4c(Cl)cccc42)C3)C1 [Compound 44, [(3R)-1-[(7S)-4′-chloro-2-[[(2R)-2-fluoro-1,2,3,5,6,7-hexahydropyrrolizin-8-yl]methoxy]spiro[5,8-dihydropyrano[4,3-d]pyrimidine-7,1′-indane]-4-yl]azepan-3-yl]cyanamide] | 1000 to 20000
C[C@@]1(NC#N)CCCN(c2nc(OC[C@@]34CCCN3C[C@H](F)C4)nc3c2COC2(CCc4c(Cl)cccc42)C3)C1 (stereo partly drawn) [Compound 46B, [(3R)-1-[(7*)-4′-chloro-2-[[(2R,8S)-2-fluoro-1,2,3,5,6,7-hexahydropyrrolizin-8-yl]methoxy]spiro[5,8-dihydropyrano[4,3-d]pyrimidine-7,1′-indane]-4-yl]-3-methyl-3-piperidyl]cyanamide; 2,2,2-trifluoroacetic acid] | 1000 to 20000
O=C(c1nn2c(c1Cl)CN(c1nc(OC[C@@]34CCCN3C[C@H](F)C4)nc3c1CO[C@@]1(CCc4c(Cl)cccc41)C3)CCC2)N1CCS(=O)(=O)CC1 [Compound 56, [3-chloro-5-[(7R)-4′-chloro-2-[[(2R,8S)-2-fluoro-1,2,3,5,6,7-hexahydropyrrolizin-8-yl]methoxy]spiro[5,8-dihydropyrano[4,3-d]pyrimidine-7,1′-indane]-4-yl]-4,6,7,8-tetrahydropyrazolo[1,5-a][1,4]diazepin-2-yl]-(1,1-dioxo-1,4-thiazinan-4-yl)methanone] | 10 to 100
CN1Cc2c(nc(OC[C@@]34CCCN3C[C@H](F)C4)nc2N2CCC[C@]3(C2)NC(=O)NC3=O)C[C@]12CCc1c(Cl)cccc12 [Compound 58, (5R)-9-[(7S)-4′-chloro-2-[[(2R,8S)-2-fluoro-1,2,3,5,6,7-hexahydropyrrolizin-8-yl]methoxy]-6-methyl-spiro[5,8-dihydropyrido[4,3-d]pyrimidine-7,1′-indane]-4-yl]-1,3,9-triazaspiro[4.5]decane-2,4-dione] | 10 to 100
CN(C)C(=O)c1nn2c(c1Cl)CN(c1nc(OC[C@@]34CCCN3C[C@H](F)C4)nc3c1COC1(CCc4ccc(C(F)F)cc41)C3)CCC2 (stereo partly drawn) [Compound 75, 3-chloro-5-[6′-(difluoromethyl)-2-[[(2R,8S)-2-fluoro-1,2,3,5,6,7-hexahydropyrrolizin-8-yl]methoxy]spiro[5,8-dihydropyrano[4,3-d]pyrimidine-7,1′-indane]-4-yl]-N,N-dimethyl-4,6,7,8-tetrahydropyrazolo[1,5-a][1,4]diazepine-2-carboxamide] | 100 to 1000
CN(C)C(=O)c1nn2c(c1Cl)CN(c1nc(OC[C@@]34CCCN3C[C@H](F)C4)nc3c1CN(CC#N)[C@@]1(CCc4cccc(F)c41)C3)CCC2 [Compound 101, 3-chloro-5-[(7S)-6-(cyanomethyl)-7′-fluoro-2-[[(2R,8S)-2-fluoro-1,2,3,5,6,7-hexahydropyrrolizin-8-yl]methoxy]spiro[5,8-dihydropyrido[4,3-d]pyrimidine-7,1′-indane]-4-yl]-N,N-dimethyl-4,6,7,8-tetrahydropyrazolo[1,5-a][1,4]diazepine-2-carboxamide] | 100 to 1000
CN(C)C(=O)c1nn2c(c1Cl)CN(c1nc(OC[C@@]34CCCN3C[C@H](F)C4)nc3c1CN(CC#N)[C@@]1(CCCc4ccccc41)C3)CCC2 [Compound 102, 3-chloro-5-[(7S)-6-(cyanomethyl)-2-[[(2R,8S)-2-fluoro-1,2,3,5,6,7-hexahydropyrrolizin-8-yl]methoxy]spiro[5,8-dihydropyrido[4,3-d]pyrimidine-7,1′-tetralin]-4-yl]-N,N-dimethyl-4,6,7,8-tetrahydropyrazolo[1,5-a][1,4]diazepine-2-carboxamide] | 10 to 100
CCN1Cc2c(nc(OC[C@@]34CCCN3C[C@H](F)C4)nc2N2CCCn3nc(C(=O)N(C)C)c(Cl)c3C2)C[C@]12CCc1cccc(F)c12 [Compound 103, 3-chloro-5-[(7S)-6-ethyl-7′-fluoro-2-[[(2R,8S)-2-fluoro-1,2,3,5,6,7-hexahydropyrrolizin-8-yl]methoxy]spiro[5,8-dihydropyrido[4,3-d]pyrimidine-7,1′-indane]-4-yl]-N,N-dimethyl-4,6,7,8-tetrahydropyrazolo[1,5-a][1,4]diazepine-2-carboxamide] | 10 to 100

Reference: patent US11912723B2, “KRAS modulators and uses thereof” (Quanta Therapeutics, Inc., priority 2022, dated 2024)
